Results on four compounds are retold here after ChEMBL document CHEMBL2074189, “Functional expression cloning and characterization of the hepatocyte Na+/bile acid cotransport system” (Proc Natl Acad Sci U S A, 1991).

Format in all cases: functional, cell-based
What all share (conditions): oocyte

The target of data set [1] is T1, Hepatic sodium/bile acid cotransporter (Rattus norvegicus, UniProt P26435).
T1 sequence (P26435 whole entry): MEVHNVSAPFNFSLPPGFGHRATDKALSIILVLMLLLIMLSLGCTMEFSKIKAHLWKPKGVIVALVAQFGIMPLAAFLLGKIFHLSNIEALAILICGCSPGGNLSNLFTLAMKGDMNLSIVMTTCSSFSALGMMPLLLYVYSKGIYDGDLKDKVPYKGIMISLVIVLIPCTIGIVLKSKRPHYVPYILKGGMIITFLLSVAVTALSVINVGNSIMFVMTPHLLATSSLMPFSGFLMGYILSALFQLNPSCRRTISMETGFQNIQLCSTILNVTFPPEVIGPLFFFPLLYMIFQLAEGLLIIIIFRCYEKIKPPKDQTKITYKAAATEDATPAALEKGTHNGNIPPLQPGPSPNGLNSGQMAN
The data set can be described thus: TP_TRANSPORTER: inhibition of Taurocholate uptake (Taurochorate: 17 uM, Bumetanide: 500 uM) in Xenopus laevis oocytes.

Data set [2] deals with T1, Hepatic sodium/bile acid cotransporter. Kind of data set: TP_TRANSPORTER: inhibition of Taurocholate uptake (Taurochorate: 17 uM, Probenecid: 1000 uM) in Xenopus laevis oocytes.
Data set [3] shares this target. The data set can be described thus: TP_TRANSPORTER: inhibition of Taurocholate uptake (Taurochorate: 17 uM, BSP: 100 uM) in Xenopus laevis oocytes.
Data set [4] has the same target. Kind of data set: TP_TRANSPORTER: inhibition of Taurocholate uptake (Taurochorate: 17 uM, TCDC: 100 uM) in Xenopus laevis oocytes.

With `CCCCNc1cc(C(=O)O)cc(S(N)(=O)=O)c1Oc1ccccc1` [BUMETANIDE], the Activity result in data set [1] was “inhibitor [(at a rough estimate) 50 % of control]”. With `CCCN(CCC)S(=O)(=O)c1ccc(C(=O)O)cc1` [PROBENECID], in data set [2], the Activity result was “inhibitor [(at a rough estimate) 70 % of control]”. With `O=C1OC(c2ccc(O)c(S(=O)(=O)[O-])c2)(c2ccc(O)c(S(=O)(=O)[O-])c2)c2c(Br)c(Br)c(Br)c(Br)c21.[Na+].[Na+]` [SULFOBROMOPHTHALEIN SODIUM], in data set [3], the Activity result is “inhibitor [(at a rough estimate) 25 % of control]”.

Turning to `C[C@H](CCC(=O)NCCS(=O)(=O)O)[C@H]1CC[C@H]2[C@@H]3[C@H](O)C[C@@H]4C[C@H](O)CC[C@]4(C)[C@H]3CC[C@]12C` [TAUROCHENODEOXYCHOLATE], the Activity result in data set [4] is “inhibitor [(at a rough estimate) 15 % of control]”.
